Measured values reported in article PMC10046369, “Low-Affinity/High-Selectivity Dopamine Transport Inhibition Sufficient to Rescue Cognitive Functions in the Aging Rat” (Biomolecules, 2023).

Columns and labels:
Assay in all cases: biochemical
Parameters in all cases: KINOMEscan competition binding panel, per cent of control
Conditions in all cases: read-out: %Ctrl @ 2800nM
[1] = target: T1, CTK (Homo sapiens, UniProt P42679)
T1 construct: gene MATK
In short: (§1)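 Competition binding panel (KINOMEscan) across 450 human kinases and disease-relevant mutants, run to the contractor's standard protocol. Values are % control: (test signal − positive control signal)/(negative control signal − positive control signal) × 100, with lower values indicating stronger binding.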

[2] = target: GAK (Homo sapiens, UniProt O14976)
Sequence of GAK (O14976 whole entry): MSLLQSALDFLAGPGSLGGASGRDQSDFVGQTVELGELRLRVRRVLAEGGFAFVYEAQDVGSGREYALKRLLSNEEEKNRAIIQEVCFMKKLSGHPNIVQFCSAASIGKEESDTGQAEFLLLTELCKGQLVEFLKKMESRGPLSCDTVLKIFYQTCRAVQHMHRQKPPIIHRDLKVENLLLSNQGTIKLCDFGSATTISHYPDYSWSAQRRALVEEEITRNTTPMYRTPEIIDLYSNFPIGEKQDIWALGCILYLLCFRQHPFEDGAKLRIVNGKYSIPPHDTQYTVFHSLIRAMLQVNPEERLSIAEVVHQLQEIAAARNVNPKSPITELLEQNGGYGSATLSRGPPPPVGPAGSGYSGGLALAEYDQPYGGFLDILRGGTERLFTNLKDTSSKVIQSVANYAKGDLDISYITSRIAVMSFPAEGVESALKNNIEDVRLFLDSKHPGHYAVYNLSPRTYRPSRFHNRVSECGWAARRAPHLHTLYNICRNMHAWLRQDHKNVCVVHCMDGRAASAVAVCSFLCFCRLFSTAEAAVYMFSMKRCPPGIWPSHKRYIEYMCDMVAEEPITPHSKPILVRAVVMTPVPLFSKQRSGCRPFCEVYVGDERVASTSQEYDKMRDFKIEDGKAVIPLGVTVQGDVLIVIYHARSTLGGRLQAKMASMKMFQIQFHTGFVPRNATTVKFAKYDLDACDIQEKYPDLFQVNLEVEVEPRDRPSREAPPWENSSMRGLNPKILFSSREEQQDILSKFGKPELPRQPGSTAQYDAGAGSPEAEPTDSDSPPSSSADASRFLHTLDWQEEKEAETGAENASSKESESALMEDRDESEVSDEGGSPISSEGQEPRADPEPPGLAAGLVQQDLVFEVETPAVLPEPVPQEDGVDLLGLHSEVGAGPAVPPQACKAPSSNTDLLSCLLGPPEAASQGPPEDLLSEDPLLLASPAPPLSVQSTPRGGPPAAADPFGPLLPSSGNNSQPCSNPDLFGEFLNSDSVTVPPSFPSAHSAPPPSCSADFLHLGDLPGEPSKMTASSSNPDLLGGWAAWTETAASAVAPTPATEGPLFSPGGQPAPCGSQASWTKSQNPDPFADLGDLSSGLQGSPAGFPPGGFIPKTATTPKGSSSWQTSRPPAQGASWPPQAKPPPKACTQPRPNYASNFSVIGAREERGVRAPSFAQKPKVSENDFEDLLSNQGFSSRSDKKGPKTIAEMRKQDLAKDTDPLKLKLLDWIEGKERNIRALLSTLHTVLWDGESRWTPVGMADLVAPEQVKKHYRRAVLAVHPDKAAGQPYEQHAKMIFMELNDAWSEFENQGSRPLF
In short: as §1

[3] = target: CSNK1A1 (Homo sapiens, UniProt P48729)
Sequence of CSNK1A1 (P48729 whole entry): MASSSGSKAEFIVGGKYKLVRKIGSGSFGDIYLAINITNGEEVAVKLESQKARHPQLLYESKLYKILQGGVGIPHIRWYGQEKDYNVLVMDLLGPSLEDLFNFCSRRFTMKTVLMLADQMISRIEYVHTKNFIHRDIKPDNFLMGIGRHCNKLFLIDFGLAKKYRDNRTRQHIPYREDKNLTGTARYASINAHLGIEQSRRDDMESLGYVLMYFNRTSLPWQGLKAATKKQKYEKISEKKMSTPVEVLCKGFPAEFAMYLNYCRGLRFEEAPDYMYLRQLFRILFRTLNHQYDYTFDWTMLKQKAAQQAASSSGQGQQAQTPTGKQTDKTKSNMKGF
In short: as §1

[4] = target: PIP5K1C (Homo sapiens, UniProt O60331)
In short: as §1

[5] = target: ALK(L1196M) (Homo sapiens, UniProt Q9UM73, L1196M)
In short: as §1

[6] = target: T2, ASK2 (Homo sapiens, UniProt O95382)
T2 construct: gene MAP3K6
In short: as §1

[7] = target: INSR (Homo sapiens, UniProt P06213)
In short: as §1

[8] = target: T3, ABL1(H396P)-phosphorylated (Homo sapiens, UniProt P00519, H396P)
T3 construct: phosphorylated
In short: as §1

[9] = target: T4, PFTK1 (Homo sapiens, UniProt O94921)
T4 construct: gene CDK14
T4 sequence (O94921 whole entry): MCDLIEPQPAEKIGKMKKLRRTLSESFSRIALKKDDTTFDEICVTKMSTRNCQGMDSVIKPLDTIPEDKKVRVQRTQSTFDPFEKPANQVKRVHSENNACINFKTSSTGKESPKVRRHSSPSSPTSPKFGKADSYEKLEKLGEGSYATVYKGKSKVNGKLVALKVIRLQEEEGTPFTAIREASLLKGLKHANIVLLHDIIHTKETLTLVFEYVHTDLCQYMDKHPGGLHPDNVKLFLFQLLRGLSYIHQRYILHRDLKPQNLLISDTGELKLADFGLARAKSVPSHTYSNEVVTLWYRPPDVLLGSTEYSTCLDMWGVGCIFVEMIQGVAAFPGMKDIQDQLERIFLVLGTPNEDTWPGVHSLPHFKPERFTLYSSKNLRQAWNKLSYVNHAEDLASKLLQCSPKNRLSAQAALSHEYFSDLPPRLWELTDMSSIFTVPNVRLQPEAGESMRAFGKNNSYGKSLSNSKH
In short: as §1

[10] = target: T5, PCTK3 (Homo sapiens, UniProt Q07002)
T5 construct: gene CDK18
In short: as §1

[11] = target: EPHB4 (Homo sapiens, UniProt P54760)
Sequence of EPHB4 (P54760 whole entry): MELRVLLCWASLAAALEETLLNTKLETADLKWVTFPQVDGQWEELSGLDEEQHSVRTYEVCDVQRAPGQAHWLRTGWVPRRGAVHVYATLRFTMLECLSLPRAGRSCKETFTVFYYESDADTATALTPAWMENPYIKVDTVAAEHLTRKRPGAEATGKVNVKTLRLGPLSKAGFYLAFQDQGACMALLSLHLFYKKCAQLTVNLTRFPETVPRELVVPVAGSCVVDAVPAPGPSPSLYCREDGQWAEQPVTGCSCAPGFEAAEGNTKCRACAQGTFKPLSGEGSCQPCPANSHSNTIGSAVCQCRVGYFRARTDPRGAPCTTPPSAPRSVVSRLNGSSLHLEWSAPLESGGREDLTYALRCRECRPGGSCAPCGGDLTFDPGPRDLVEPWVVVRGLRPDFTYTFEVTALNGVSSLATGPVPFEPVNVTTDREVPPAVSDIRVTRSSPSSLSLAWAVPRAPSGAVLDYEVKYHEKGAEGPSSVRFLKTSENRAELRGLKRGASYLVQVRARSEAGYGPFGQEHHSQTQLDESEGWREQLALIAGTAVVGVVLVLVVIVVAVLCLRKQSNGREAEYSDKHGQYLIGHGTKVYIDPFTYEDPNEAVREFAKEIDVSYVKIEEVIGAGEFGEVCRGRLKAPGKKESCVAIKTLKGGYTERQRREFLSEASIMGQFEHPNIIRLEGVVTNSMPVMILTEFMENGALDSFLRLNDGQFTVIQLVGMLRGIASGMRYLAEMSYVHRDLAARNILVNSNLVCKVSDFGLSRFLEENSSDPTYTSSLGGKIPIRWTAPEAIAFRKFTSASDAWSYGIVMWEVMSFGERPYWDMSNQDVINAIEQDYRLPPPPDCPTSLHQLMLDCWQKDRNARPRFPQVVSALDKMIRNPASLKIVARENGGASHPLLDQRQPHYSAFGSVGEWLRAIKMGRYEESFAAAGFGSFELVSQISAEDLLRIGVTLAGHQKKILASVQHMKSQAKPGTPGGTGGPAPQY
In short: as §1

[12] = target: ACVR1B (Homo sapiens, UniProt P36896)
In short: as §1

[13] = target: MST1R (Homo sapiens, UniProt Q04912)
Sequence of MST1R (Q04912 whole entry): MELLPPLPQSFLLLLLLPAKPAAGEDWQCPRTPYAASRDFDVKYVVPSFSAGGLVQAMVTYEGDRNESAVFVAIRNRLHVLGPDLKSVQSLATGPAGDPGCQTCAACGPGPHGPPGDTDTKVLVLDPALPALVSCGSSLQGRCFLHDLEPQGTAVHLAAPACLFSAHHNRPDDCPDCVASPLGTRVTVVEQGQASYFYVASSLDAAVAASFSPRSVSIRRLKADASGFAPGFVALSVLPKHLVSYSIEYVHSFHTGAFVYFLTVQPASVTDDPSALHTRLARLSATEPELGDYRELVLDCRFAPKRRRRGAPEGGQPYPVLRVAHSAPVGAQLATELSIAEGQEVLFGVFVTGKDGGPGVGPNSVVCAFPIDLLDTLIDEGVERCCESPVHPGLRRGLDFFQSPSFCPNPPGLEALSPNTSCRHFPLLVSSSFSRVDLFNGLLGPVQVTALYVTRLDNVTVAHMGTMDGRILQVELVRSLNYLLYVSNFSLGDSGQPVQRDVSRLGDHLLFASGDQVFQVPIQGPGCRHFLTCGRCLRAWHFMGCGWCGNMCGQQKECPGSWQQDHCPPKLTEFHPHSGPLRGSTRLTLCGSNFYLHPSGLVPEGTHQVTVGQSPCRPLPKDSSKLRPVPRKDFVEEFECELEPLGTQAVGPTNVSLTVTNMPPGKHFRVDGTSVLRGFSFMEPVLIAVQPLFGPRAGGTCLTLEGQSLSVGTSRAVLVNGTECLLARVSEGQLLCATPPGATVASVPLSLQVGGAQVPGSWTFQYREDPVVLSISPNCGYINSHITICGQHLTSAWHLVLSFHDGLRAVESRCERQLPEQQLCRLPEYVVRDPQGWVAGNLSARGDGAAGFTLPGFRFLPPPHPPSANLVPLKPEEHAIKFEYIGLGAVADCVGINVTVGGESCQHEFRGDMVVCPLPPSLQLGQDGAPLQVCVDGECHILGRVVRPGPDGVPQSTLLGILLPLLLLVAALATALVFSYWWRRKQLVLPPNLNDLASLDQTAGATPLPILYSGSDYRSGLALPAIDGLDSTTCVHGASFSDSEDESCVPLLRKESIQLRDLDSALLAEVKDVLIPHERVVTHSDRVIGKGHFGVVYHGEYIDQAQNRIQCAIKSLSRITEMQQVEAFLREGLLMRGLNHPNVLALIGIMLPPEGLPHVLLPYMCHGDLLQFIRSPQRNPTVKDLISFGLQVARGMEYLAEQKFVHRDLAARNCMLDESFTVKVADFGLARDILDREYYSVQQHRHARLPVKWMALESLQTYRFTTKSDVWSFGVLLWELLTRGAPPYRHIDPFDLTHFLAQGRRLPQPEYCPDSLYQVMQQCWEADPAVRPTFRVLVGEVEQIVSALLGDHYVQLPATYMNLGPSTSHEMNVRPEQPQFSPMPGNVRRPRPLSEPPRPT
In short: as §1

[14] = target: T6, NIK (Homo sapiens, UniProt Q99558)
T6 construct: gene MAP3K14
In short: as §1

[15] = target: T7, NDR1 (Homo sapiens, UniProt Q15208)
T7 construct: gene STK38
In short: as §1

[16] = target: T8, JAK1(JH2domain-pseudokinase) (Homo sapiens, UniProt P23458)
T8 construct: JH2domain-pseudokinase
In short: as §1

[17] = target: T9, ADCK4 (Homo sapiens, UniProt Q96D53)
T9 construct: gene COQ8B
In short: as §1

[18] = target: EPHA5 (Homo sapiens, UniProt P54756)
In short: as §1

[19] = target: SGK2 (Homo sapiens, UniProt Q9HBY8)
In short: as §1

[20] = target: T10, MINK (Homo sapiens, UniProt Q8N4C8)
T10 construct: gene MINK1
In short: as §1

[21] = target: DAPK2 (Homo sapiens, UniProt Q9UIK4)
In short: as §1

[22] = target: MAP4K3 (Homo sapiens, UniProt Q8IVH8)
In short: as §1

[23] = target: T11, MLK2 (Homo sapiens, UniProt Q02779)
T11 construct: gene MAP3K10
In short: as §1

[24] = target: CLK3 (Homo sapiens, UniProt P49761)
Sequence of CLK3 (P49761 whole entry): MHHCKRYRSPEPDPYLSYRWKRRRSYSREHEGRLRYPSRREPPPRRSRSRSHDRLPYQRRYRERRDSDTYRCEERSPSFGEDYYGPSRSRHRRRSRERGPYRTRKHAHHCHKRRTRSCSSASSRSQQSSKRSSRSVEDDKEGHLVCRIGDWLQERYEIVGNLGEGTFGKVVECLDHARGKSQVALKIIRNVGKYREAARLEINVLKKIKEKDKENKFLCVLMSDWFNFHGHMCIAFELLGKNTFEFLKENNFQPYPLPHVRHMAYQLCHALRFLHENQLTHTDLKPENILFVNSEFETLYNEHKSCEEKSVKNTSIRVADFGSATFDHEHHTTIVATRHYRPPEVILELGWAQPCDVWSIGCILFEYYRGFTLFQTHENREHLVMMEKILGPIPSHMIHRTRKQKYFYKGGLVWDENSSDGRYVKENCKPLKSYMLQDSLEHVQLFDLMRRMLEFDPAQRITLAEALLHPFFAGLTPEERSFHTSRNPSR
In short: as §1

[25] = target: T12, RSK2(Kin.Dom.2-C-terminal) (Homo sapiens, UniProt P51812)
T12 construct: gene RPS6KA3; Kin.Dom.2-C-terminal
In short: as §1

[26] = target: GRK1 (Homo sapiens, UniProt Q15835)
In short: as §1

Which results are given for `[O-][S@@+](Cc1cncs1)C(c1ccccc1)c1ccccc1` [S-CE-123, (S)-5-((Benzhydrylsulfinyl)Methyl)Thiazole]?
remaining binding at 2.8 µM [1]: 51%; remaining binding at 2.8 µM [2]: 100%; remaining binding at 2.8 µM [3]: 74%; remaining binding at 2.8 µM [4]: 100%; remaining binding at 2.8 µM [5]: 100%; remaining binding at 2.8 µM [6]: 100%; remaining binding at 2.8 µM [7]: 100%; remaining binding at 2.8 µM [8]: 90%; remaining binding at 2.8 µM [9]: 92%; remaining binding at 2.8 µM [10]: 99%; remaining binding at 2.8 µM [11]: 95%; remaining binding at 2.8 µM [12]: 100%; remaining binding at 2.8 µM [13]: 93%; remaining binding at 2.8 µM [14]: 100%; remaining binding at 2.8 µM [15]: 83%; remaining binding at 2.8 µM [16]: 92%; remaining binding at 2.8 µM [17]: 96%; remaining binding at 2.8 µM [18]: 86%; remaining binding at 2.8 µM [19]: 100%; remaining binding at 2.8 µM [20]: 87%; remaining binding at 2.8 µM [21]: 96%; remaining binding at 2.8 µM [22]: 100%; remaining binding at 2.8 µM [23]: 96%; remaining binding at 2.8 µM [24]: 95%; remaining binding at 2.8 µM [25]: 96%; remaining binding at 2.8 µM [26]: 100%
